The target in one experiment is Mu-type opioid receptor (Homo sapiens, UniProt P35372). Nature of the experiment: biochemical. It is filed as functional.
Experiment [1] deals with T1, 5-hydroxytryptamine receptor 2B (Homo sapiens, UniProt P41595). It counts as functional, cell-based.
Experiment [2] concerns the target T2, Muscarinic acetylcholine receptor M1 (Homo sapiens, UniProt P11229).
T2 sequence (P11229 whole entry): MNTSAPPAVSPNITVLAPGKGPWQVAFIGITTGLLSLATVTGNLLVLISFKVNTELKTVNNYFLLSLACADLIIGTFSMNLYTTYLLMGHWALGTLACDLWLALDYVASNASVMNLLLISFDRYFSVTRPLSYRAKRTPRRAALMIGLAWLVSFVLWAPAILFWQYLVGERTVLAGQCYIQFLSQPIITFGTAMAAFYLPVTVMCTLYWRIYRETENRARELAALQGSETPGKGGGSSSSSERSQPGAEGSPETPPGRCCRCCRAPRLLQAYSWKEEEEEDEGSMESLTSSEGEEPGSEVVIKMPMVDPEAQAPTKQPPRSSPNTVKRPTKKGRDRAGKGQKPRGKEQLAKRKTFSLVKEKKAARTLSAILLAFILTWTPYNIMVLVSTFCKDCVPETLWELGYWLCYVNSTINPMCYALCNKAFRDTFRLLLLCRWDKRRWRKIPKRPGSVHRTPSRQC
It is filed as functional.

Experiment [3] has as its target 5-hydroxytryptamine receptor 2A (Homo sapiens, UniProt P28223). It counts as functional, cell-based.
A further experiment has as its target T3, Endothelin-1 receptor (Homo sapiens, UniProt P25101).
T3 sequence (P25101 whole entry): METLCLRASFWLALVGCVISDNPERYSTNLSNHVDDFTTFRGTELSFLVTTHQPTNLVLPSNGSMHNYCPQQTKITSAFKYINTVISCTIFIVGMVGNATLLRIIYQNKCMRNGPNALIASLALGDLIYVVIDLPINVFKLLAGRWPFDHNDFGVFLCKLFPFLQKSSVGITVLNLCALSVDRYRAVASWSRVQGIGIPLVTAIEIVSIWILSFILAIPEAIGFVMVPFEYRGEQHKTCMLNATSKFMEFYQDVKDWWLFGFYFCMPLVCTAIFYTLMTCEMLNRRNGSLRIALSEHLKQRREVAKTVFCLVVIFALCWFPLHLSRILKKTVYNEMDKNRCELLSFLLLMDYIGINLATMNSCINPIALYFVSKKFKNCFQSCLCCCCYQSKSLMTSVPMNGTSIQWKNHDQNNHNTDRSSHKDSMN

For experiment [4], the target named is Kappa-type opioid receptor (Homo sapiens, UniProt P41145).
A further experiment addresses Cannabinoid receptor 1 (Homo sapiens, UniProt P21554). It is filed as functional, cell-based.
In experiment [5] the target is Muscarinic acetylcholine receptor M3 (Homo sapiens, UniProt P20309).
Experiment [6] addresses T4, Alpha-1A adrenergic receptor (Homo sapiens, UniProt P35348).
T4 sequence (P35348 whole entry): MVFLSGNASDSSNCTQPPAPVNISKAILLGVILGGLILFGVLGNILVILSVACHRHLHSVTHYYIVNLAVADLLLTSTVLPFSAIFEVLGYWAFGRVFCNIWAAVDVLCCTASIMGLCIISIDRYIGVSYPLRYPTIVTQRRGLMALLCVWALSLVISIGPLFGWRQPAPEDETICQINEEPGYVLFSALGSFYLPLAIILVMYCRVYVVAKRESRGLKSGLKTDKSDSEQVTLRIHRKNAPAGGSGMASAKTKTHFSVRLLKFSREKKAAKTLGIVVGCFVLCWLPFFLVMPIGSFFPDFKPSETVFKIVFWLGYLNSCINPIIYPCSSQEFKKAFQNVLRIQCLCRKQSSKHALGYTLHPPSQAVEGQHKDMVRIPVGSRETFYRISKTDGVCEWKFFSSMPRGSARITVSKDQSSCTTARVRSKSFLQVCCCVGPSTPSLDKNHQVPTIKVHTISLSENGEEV
It counts as functional, cell-based.

Experiment [7] addresses T5, Gastrin/cholecystokinin type B receptor (Homo sapiens, UniProt P32239).
T5 sequence (P32239 whole entry): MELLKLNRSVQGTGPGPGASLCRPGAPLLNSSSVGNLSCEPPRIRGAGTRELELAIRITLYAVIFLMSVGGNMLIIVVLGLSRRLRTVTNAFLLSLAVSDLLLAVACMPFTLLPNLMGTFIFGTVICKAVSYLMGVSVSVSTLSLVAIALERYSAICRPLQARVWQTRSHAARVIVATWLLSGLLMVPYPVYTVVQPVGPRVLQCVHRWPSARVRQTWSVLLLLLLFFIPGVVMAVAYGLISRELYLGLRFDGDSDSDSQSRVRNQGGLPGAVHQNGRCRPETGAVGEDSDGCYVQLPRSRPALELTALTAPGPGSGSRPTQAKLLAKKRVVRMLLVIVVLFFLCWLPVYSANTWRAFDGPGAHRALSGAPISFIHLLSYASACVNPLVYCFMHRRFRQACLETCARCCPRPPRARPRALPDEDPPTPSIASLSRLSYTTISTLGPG

Experiment [8] addresses T1, 5-hydroxytryptamine receptor 2B. It counts as functional, cell-based. The source holds these as a separate data set.
For experiment [9], the target named is Beta-2 adrenergic receptor (Homo sapiens, UniProt P07550). It is filed as functional, cell-based.

What is called AC50 is the concentration at which the activity in the assay is half-maximal. Low values mean greater potency, high ones weaker potency.
Note: assay procedure not described here.

Mu-type opioid receptor, sequence (P35372 whole entry): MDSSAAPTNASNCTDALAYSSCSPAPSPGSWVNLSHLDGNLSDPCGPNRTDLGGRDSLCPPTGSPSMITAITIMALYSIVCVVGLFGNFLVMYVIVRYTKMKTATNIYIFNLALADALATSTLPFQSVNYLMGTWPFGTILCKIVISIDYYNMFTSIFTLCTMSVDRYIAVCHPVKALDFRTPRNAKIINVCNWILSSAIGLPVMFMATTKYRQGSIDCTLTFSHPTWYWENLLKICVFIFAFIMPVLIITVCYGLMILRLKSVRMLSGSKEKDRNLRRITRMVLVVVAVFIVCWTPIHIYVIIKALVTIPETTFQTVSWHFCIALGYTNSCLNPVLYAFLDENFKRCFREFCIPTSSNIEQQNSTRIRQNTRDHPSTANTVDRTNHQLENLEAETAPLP
Muscarinic acetylcholine receptor M3, sequence (P20309 whole entry): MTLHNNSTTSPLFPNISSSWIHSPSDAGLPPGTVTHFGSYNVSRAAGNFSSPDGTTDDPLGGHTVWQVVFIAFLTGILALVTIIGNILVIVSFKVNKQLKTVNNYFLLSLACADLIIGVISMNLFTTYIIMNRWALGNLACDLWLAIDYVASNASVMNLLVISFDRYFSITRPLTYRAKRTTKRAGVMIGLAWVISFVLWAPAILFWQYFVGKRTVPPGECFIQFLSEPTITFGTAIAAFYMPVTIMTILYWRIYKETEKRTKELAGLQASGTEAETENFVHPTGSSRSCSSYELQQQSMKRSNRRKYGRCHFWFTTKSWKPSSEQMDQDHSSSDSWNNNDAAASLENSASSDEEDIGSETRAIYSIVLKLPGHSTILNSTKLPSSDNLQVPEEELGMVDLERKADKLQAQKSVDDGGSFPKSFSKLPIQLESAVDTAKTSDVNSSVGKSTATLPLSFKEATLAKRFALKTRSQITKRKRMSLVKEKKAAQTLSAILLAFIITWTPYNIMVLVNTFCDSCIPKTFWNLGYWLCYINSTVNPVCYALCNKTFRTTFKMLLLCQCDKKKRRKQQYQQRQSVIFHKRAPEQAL
5-hydroxytryptamine receptor 2A, sequence (P28223 whole entry): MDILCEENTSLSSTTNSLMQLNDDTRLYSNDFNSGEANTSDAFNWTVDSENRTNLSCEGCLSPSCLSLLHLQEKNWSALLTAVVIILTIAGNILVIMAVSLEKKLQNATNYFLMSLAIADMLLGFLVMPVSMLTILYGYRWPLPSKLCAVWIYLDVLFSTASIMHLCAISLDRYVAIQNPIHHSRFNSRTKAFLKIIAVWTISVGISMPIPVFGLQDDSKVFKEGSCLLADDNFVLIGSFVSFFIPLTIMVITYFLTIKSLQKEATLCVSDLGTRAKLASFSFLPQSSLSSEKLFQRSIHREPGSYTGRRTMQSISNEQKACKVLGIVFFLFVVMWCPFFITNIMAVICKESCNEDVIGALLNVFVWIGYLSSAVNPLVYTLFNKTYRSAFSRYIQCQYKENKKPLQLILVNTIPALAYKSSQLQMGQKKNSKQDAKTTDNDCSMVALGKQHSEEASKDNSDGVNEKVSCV
T1 sequence (P41595 whole entry): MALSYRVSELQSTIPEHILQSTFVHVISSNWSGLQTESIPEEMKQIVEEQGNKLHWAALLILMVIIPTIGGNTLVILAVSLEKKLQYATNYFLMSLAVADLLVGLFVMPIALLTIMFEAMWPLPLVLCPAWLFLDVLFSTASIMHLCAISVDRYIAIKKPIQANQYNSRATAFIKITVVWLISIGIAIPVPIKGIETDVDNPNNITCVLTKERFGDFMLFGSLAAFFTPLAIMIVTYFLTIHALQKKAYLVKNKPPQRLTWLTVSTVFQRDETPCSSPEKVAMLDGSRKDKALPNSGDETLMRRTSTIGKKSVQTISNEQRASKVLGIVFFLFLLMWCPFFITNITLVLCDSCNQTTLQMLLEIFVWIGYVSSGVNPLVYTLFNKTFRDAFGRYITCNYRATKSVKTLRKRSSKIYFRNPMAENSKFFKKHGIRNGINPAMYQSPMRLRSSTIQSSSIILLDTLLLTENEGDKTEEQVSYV
Kappa-type opioid receptor, sequence (P41145 whole entry): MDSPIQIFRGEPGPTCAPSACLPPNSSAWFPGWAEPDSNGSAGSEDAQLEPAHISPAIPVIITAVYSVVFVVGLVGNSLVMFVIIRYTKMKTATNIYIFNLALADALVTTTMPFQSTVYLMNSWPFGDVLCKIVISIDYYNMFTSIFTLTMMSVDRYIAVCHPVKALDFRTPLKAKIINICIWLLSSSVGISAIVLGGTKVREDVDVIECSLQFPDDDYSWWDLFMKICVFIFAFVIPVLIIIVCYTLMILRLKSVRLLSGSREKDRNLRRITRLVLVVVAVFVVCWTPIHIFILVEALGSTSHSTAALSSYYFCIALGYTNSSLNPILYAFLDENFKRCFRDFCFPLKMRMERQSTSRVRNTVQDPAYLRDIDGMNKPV
Cannabinoid receptor 1, sequence (P21554 whole entry): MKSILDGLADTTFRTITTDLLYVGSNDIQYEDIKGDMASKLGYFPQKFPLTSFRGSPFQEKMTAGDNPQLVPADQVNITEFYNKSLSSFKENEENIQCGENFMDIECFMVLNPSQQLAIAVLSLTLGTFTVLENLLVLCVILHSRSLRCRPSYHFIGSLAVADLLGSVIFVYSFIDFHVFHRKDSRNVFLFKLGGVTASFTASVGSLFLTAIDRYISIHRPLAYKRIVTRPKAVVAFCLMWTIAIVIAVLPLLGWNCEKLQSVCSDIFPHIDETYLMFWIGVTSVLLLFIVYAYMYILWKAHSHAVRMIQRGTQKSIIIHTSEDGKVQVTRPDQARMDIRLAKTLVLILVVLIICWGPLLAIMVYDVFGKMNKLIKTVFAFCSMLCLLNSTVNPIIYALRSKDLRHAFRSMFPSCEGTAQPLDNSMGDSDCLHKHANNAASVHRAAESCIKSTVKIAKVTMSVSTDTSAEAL
Beta-2 adrenergic receptor, sequence (P07550 whole entry): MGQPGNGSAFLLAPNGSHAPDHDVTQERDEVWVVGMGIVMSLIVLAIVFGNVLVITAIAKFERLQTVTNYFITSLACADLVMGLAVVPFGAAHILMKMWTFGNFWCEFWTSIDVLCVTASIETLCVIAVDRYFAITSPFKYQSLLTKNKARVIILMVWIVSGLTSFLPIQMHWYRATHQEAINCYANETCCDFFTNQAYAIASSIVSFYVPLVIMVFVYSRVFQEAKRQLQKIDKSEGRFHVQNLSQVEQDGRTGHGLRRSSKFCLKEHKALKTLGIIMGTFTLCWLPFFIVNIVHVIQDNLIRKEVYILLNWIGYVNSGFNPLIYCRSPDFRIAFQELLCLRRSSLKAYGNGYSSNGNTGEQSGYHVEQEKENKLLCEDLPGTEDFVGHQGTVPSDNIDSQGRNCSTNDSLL

As to `COCC1=C(C(=O)O)N2C(=O)[C@@H](NC(=O)/C(=N\OC)c3csc(N)n3)[C@H]2SC1` [CEFPODOXIME], the AC50 (at Mu-type opioid receptor; in experiment [1]; in experiment [2]; in experiment [3]; at Endothelin-1 receptor; in [4]) was over 30 µM throughout. Also, the AC50 (at Cannabinoid receptor 1; in [5]; in [6]; in experiment [7]; in [8]) was over 30 µM each time.
Take `COc1cc(N)c(Cl)cc1C(=O)NC1CCN(Cc2ccccc2)CC1` [CLEBOPRIDE]: the AC50 was over 30 µM on Mu-type opioid receptor; over 30 µM in experiment [1]; over 30 µM in experiment [2]; 2.4 µM in experiment [3]; over 30 µM on Endothelin-1 receptor; 22 µM in [4]. For the same molecule, the AC50 is over 30 µM at Cannabinoid receptor 1; over 30 µM in [5]; over 30 µM in experiment [6]; over 30 µM in [7]; 0.98 µM in experiment [8].
Turning to `CCOC(=O)c1cncn1[C@H](C)c1ccccc1` [ETOMIDATE], the AC50 is over 10 µM in [1]; over 10 µM in [2]; over 10 µM in experiment [3]; over 10 µM in experiment [4]; over 30 µM at Cannabinoid receptor 1; over 30 µM in experiment [9]. Moreover, the AC50 in experiment [5] is over 30 µM; in experiment [6], over 30 µM; in experiment [8], over 10 µM.
As for `C[C@]12CCC(=O)C(O)=C1CC[C@@H]1[C@@H]2CC[C@]2(C)C(=O)CC[C@@H]12` [FORMESTANE], the AC50 (on Mu-type opioid receptor; in experiment [1]; in experiment [2]; in experiment [3]; on Endothelin-1 receptor; at Cannabinoid receptor 1) was over 30 µM each time. In addition, the AC50 in [5], in experiment [6], in [7] and in experiment [8] was over 30 µM each time.
Turning to `Clc1ccc2c(N3CCN(CCCN4CCN(c5ccnc6cc(Cl)ccc56)CC4)CC3)ccnc2c1` [PIPERAQUINE], the AC50 on Mu-type opioid receptor is over 30 µM; in experiment [1], over 30 µM; in [2] it was 3.8 µM; in [3], over 30 µM; at Endothelin-1 receptor, over 30 µM; in experiment [4] it was 17 µM. For the same molecule, the AC50 (at Cannabinoid receptor 1; in experiment [5]; in experiment [6]; in [7]; in experiment [8]) was over 30 µM each time.
For the molecule `CC1(C)S[C@@H]2[C@H](NC(=O)[C@H](N)c3ccccc3)C(=O)N2[C@H]1C(=O)OCOC(=O)[C@@H]1N2C(=O)C[C@H]2S(=O)(=O)C1(C)C` [SULTAMICILLIN], the AC50 (at Mu-type opioid receptor; in experiment [1]; in experiment [2]; in experiment [3]; at Endothelin-1 receptor; in [4]) was over 30 µM each time. In addition, the AC50 (at Cannabinoid receptor 1; in experiment [5]; in experiment [6]; in [7]; in experiment [8]) was over 30 µM each time.
For `CCC(=O)O[C@H]1CC[C@H]2[C@@H]3CCC4=CC(=O)CC[C@]4(C)[C@H]3CC[C@]12C` [TESTOSTERONE PROPIONATE], the AC50 is over 10 µM in experiment [1]; over 10 µM in experiment [2]; over 30 µM in experiment [3]; 7.71 µM in experiment [4]; over 30 µM at Cannabinoid receptor 1; over 30 µM in experiment [9]. In addition, the AC50 in experiment [5] is over 10 µM; in [6], over 30 µM; in experiment [8], over 10 µM.
With `Cc1cccc(N2CC(CO)OC2=O)c1` (stereo not drawn) [TOLOXATONE], the AC50 (on Mu-type opioid receptor; in experiment [1]; in experiment [2]; in [3]; on Endothelin-1 receptor; in experiment [4]) was over 30 µM in each case. Also, the AC50 (on Cannabinoid receptor 1; in experiment [5]; in experiment [6]; in [7]; in experiment [8]) was over 30 µM in each case.

These data come from ChEMBL document CHEMBL5291721, “A preclinical secondary pharmacology resource illuminates target-adverse drug reaction associations of marketed drugs” (Nat Commun, 2023).
